Measurements: patent publication US9957236B2, “Selective inhibitors interfering with fibroblast growth factor receptor and FRS2 interaction for the prevention and treatment of cancer and other diseases” (LIMITED LIABILITY COMPANY “RUSSIAN PHARMACEUTICAL …, priority 2014, dated 2018)

Key:
intracellular kinases = test: Intracellular kinases phosphorylation in breast cancer cells MDA MB 134; format: cell-based; details: MDA MB 134 cells
Excerpt: (§1) The purpose of this research was assessment of specific action of inhibitor RPT835 specified in this invention with formula II, on interaction of […] and FRS2 and assessment of influence on interaction of other types of FGFR and FRS2. For the experiment, 2 cell lines were selected: • stomach cancer KATO III, expressing FGFR2, and • breast cancer MDA MB 134, expressing FGFR1.
(§2) The research procedure was the same as in the previous examples: the cells were cultivated in presence of RPT835 followed by stimulation with FGF-2 and heparin. The other part of the cells was cultivated in presence of RPT835. Phosphorylation of FGFR1 (in breast cancer cells) and FGFR2 (in stomach cancer cells), and also FRS2a (in the both cell lines) and some intracellular kinases (in breast cancer cells) was assessed using manual and automated Western blotting.

FRS2α [1] = target: T1, FRS2α (Homo sapiens, UniProt Q8WU20); test: FRS2α phosphorylation in breast cancer cells MDA MB 134 (FGFR1 system); format: cell-based; parameters: endogenous in cells; host or cells: MDA MB 134; details: MDA MB 134 cells
T1 sequence (Q8WU20 1-508): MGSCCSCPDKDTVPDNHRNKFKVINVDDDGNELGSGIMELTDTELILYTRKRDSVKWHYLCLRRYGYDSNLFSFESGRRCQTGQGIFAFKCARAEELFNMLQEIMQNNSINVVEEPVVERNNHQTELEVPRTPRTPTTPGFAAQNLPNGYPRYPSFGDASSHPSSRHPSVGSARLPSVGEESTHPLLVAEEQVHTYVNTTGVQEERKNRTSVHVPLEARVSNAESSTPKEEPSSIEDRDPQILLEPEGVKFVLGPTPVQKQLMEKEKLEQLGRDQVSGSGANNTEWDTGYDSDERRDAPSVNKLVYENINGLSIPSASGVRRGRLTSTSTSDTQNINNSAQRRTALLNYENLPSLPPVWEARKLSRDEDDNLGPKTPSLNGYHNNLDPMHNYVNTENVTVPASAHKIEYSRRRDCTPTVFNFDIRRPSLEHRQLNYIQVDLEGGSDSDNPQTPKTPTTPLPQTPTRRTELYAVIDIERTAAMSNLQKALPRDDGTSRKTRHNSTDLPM
Excerpt: as §1, §2

FRS2 = target: T2, FRS2 (Homo sapiens, UniProt Q8WU20); test: FRS2 phosphorylation in FGF-2/heparin-stimulated KATO III cells (Western blotting, Wes); format: cell-based; parameters: endogenous in cells
T2 sequence (Q8WU20 1-508): T1 sequence (Q8WU20 1-508)
Protocol: For assessment of the effect of RPT835 inhibitor characterized in this invention with formula II, stomach cancer cells KATO III, which express FGFR2, were used for FRS2 phosphorylation. […] RPT835 was added in various concentrations. A part of the cells was left without adding the inhibitor, and a part of the cells—without adding either inhibitor, or stimulating agents (control group).
Two standard methods for assessment of the phosphorylation level of FGFR and FRS2: • Western blotting using manual work; • Automatic capillary electrophoresis and immunodetection using automatic system Wes™ (ProteinSimple; SantaClara, Calif.).
as §1, §2

[2] = system: non-small cell lung cancer NCI-H226; test: Tumor growth of NCI-H226 xenograft in nude mice; format: in vivo; details: 30 day; NCI-H226 not expressing FGFR2, 30 mg/kg daily through a stomach tube; P=0.619 vs control
Protocol: (§3) Females of immunodeficient mice (nude) at the age of 8 weeks were administered 2×10^6 tumor cells of human cell lines with various expression of FGFR2: • cell line of triple-negative breast cancer SUM52PE strongly expressing FGFR2 (purchased from Asterand, Inc. (Detroit, Mich.) • cell line of triple negative breast cancer HS578T weakly expressing FGFR2 (purchased from ATCC (CRL-125) • cell line of non-small cell lung cancer NCI-H226 not expressing FGFR2 (purchased from ATCC (CRL-5826)
(§4) After the tumor growth got established (1 mm^3), the mice were divided into control and treatment groups in accordance with the tumor type.
Control group 3 (N=10): NCI-H226, administration of water through a stomach tube, daily.
Treatment group 3 (N=10): NCI-H226, administration of inhibiter RPT835 through a stomach tube in a dose of 30 mg/kg, daily.
(§5) Size of tumor and weight of animals were measured every 3 day. The mice underwent euthanasia when the tumor reached the size of 2,000 mm^3 or on the 60 day of the experiment.

FRS2α [3] = target: T1, FRS2α; test: FRS2α phosphorylation in hFOB cells (Western blotting); format: cell-based; parameters: endogenous in cells; host or cells: hFOB; details: hFOB (FGFR2 IIIc), RPT835 1 micron, FGF-1 100 ng/ml
Protocol: The research assessed the influence of inhibitor RPT835 determined by formula II of this invention, intervention with interaction of FGFR2 represented by two most frequent isoforms IIIb and IIIc with FRS2. For this, human cell line of embryonal osteoblasts (hFOB) expressing only FGFR2 […], and human cell line of breast cancer SUM-52 expressing FGFR2 IIIb (all main versions of isoform—C1, C2, C3) were chosen.
Cells were divided into the groups: • 1a) hFOB • 1b) hFOB, stimulating FGF-1 (100 ng/ml) • 1c) hFOB, cultivation with RPT835 (1 micron) and stimulation of FGF-1 (100 ng/ml) • 2a) SUM-52 • 2b) SUM-52, stimulation of FGF-1 (100 ng/ml) • 2c) SUM-52, cultivation with RPT835 (1 micron) and stimulation of FGF-1 (100 ng/ml)

[4] = system: triple negative breast cancer SUM52PE; test: Tumor growth of SUM52PE xenograft in nude mice; format: in vivo
Protocol: as §3, §4
Control group 1 (N=10): SUM52PE, administration of water through a stomach tube, daily.
Treatment group 1 (N=10): SUM52PE, administration of inhibitor RPT835 through a stomach tube in a dose of 30 mg/kg, daily.
as §5

HUVEC = test: Proliferation of endothelial cells HUVEC with FGF-2; format: cell-based; details: Homo sapiens, FGF-2 25 ng/ml, 96 hours, read-out: Cell growth suppression, IC50
Protocol: Endothelial cells HUVEC were sawn in 96-cavity plates and cultivate for 24 hours. After that, the following was added to the cells: • 1) inhibitor RPT835, or • 2) inhibitor described by Formula IX in this invention, or • 3) brivanib—multi-kinase inhibitor of FGFR/VEGFR, and also to all cells—FGF-2 in a concentration of 25 ng/ml.
The cells were cultivated for 96 hours in general and then were calculated.

## Cc1cc([N+](=O)[O-])c(NS(=O)(=O)c2cccc(C(=O)O)c2)cc1-c1cccnc1 [RPT835, 3-(N-(4-methyl-2-nitro-5-(pyridin-3-yl)phenyl)sulfamoyl)benzoic acid]
Intracellular kinases
  phosphorylation of intracellular kinases: did not have influence
FRS2α [1]
  phosphorylation of FRS2α (system FGFR1): did not have influence
FRS2; FGF-2 and heparin stimulation, read-out: concentration of the semi-maximal inhibiting (IC50) of FRS2 phosphorylation
  IC50: < 10 nM
FRS2; concentration of 10 nM
  Suppression of FRS2α phosphorylation: > 50%
FRS2; dose of 100 nM
  phosphorylation of FRS2α (FGFR2 system): completely decreased phosphorylation of FRS2α (FGFR2 system) to the initial level
[2]
  average tumor volume: 1,053±259.7 mm3
FRS2α [3]
  FRS2α phosphorylation level: completely suppressed the phosphorylation
[4]; 30 day, 30 mg/kg daily
  Slowdown of the tumor growth: 60.2%
[4]; 30 day, 30 mg/kg daily through a stomach tube
  average size of the tumor: 1,080.7±49 mm3
[4]; Day 7, 30 mg/kg daily through a stomach tube
  Size of tumor (median): 48.0 mm3
[4]; Day 10, 30 mg/kg daily through a stomach tube
  Size of tumor (median): 112.0 mm3
[4]; Day 13, 30 mg/kg daily through a stomach tube
  Size of tumor (median): 181.0 mm3
[4]; Day 16, 30 mg/kg daily through a stomach tube
  Size of tumor (median): 256.0 mm3
[4]; Day 19, 30 mg/kg daily through a stomach tube
  Size of tumor (median): 417.0 mm3
[4]; Day 22, 30 mg/kg daily through a stomach tube
  Size of tumor (median): 591.0 mm3
[4]; Day 25, 30 mg/kg daily through a stomach tube
  Size of tumor (median): 831.5 mm3
[4]; Day 28, 30 mg/kg daily through a stomach tube
  Size of tumor (median): 958.5 mm3
[4]; Day 31, 30 mg/kg daily through a stomach tube
  Size of tumor (median): 1,088.0 mm3
[4]; Day 34, 30 mg/kg daily through a stomach tube
  Size of tumor (median): 1,134 mm3
[4]; Day 37, 30 mg/kg daily through a stomach tube
  Size of tumor (median): 1,174 mm3
[4]; Day 40, 30 mg/kg daily through a stomach tube
  Size of tumor (median): 1,208 mm3
HUVEC
  IC50: 11 nM
